Results as given in patent publication US20210220314A1, “AMINO ACID COMPOSITION FOR ENABLING FULFILMENT OF THE AMINO ACID REQUIREMENTS OF A MONOGASTRIC ANIMAL SUCH AS A HUMAN OR A PIG” (VETAGRO INTERNATIONAL S.R.L., priority 2018, published 2021).

Conditions: pig, in vivo, po

SMILES | presence of marker in the content of different sections of the gastrointestinal tract
C/C=C/C=C/C(=O)O [sorbic acid] | present in the different intestinal sections only when administered in encapsulated form in the lipid matrix
COc1cc(C=O)ccc1O [vanillin] | present in the different intestinal sections only when administered in encapsulated form in the lipid matrix
